According to patent US20200223889A1, “Bicyclic Compounds Capable of Binding to Melanocortin 4 Receptor” (Novo Nordisk A/S, priority 2017, published 2020):
Starred links: 1 amine or outer side, 2 acyl side, 3 side chain; linkers in the order of their positions; H or OH if unused. Positions of bridges follow the written chain, without caps; N, C: chain ends. Non-standard residues stand in square brackets, D forms with d. Residues, ends and D or L forms follow the SMILES beside them. d(hCys) = N[C@H](CCS)C(=O)O; X1 = C(CN[*:2])CS[*:1]; Aib = CC(C)(N)C(=O)O

Biological target: T1, human MC4R (Homo sapiens, UniProt P32245)
T1 construct: expressed in transfected cells
Assay: Functional cAMP assay (CisBio HTRF) in BHK cells expressing human MC4R
Assay type: cell-based
Details: for MC1R/MC4R cAMP EC50 ratio: MC1R cAMP EC50 divided by MC4R cAMP EC50; for EC50: BHK cells expressing human MC4R, '>' = highest dose used with no response, read-out: MC4R cAMP EC50
Procedure: In order to assess the potency of the compounds on human MC1R and human MC4R cAMP signalling was measured.
cAMP induction was measured by c-AMPdynamic2 assay, HTRF 62AM4PEC system from CisBio for the human MC1R and human MC4R according to the protocol provided by the vendor. BHK cells expressing the human MC1 or MC4 receptor were generated by stable transfection with expression vectors encoding the cDNA of either MC1R or MC4R.
In details; 25 μl compound—or standard solution were added in the respective wells. Compound was reconstituted in buffer (DMEM w/o phenol red, 10 mM
Hepes, lx Glutamine, 0.1% OV-albumin1, 1 mM IBMX) and serially diluted starting at 2 μM, 10-fold seven times. Dilutions were carried out in the same aforementioned buffer to the desired working concentration ranges (2× higher than the final concentration). 25 μl cell solution was then added and allowed to incubate for 30 min while lightly shaking, at 25° C. […] The provided components for the assay were reconstituted according to the CisBio assay protocol “3.1 supplied reagents and preparation procedure” in MilliQ purification system H2O and diluted 1:20 in lysis buffer. 25 μl cAMP-d2 and 25 μl Cryptate conjugate were added to all wells.
Plates were centrifuged at 1500 rpm for 30 sec and incubated for 1 h, lightly shaking, at 25° C. in a hotel stacker. The plates were read on Mithras LB 940 provided by Berthold Technologies The data were analysed by non-linear regression analysis of binding curves, using the Windows™ program GraphPad™ Prism (GraphPad Software, USA).
The latter is used when no full curve can be obtained in the concentration ranges indicated above.

T1 sequence (P32245 whole entry): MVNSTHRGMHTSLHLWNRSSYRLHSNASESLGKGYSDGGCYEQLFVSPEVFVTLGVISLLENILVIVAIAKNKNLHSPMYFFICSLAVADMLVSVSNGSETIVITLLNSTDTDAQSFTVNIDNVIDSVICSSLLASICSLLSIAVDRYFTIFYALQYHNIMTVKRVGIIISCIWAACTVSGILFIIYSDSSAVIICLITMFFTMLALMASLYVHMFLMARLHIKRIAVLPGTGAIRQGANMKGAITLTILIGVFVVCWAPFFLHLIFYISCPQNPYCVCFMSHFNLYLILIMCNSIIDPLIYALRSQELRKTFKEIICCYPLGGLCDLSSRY

MC1R/MC4R cAMP EC50 ratio	EC50 [nM]	Structure (SMILES)
7	0.09	CC(=O)N[C@@H](Cc1c[nH]cn1)C(=O)N[C@H](Cc1ccccc1)C(=O)N[C@@H](CCCNC(=N)N)C(=O)N[C@@H](Cc1c[nH]c2ccccc12)C(=O)NCC(=O)N[C@@H]1CCSSCCCNC(=O)CNC(=O)[C@H](Cc2c[nH]c3ccccc23)NC(=O)[C@H](CCCNC(=N)N)NC(=O)[C@@H](Cc2ccccc2)NC(=O)[C@H](Cc2c[nH]cn2)NC1=O [Chem. 4, c[c[Cys-His-D-Phe-Arg-Trp-Gly-Cys]- His-D-Phe-Arg-Trp-Gly]] (Ac-H[dF]RWG[d(hCys)]H[dF]RWG; linker 6-C via X1)
31	0.21	CC(=O)N[C@@H](Cc1c[nH]cn1)C(=O)N[C@H](Cc1ccccc1)C(=O)N[C@@H](CCCNC(=N)N)C(=O)N[C@@H](Cc1c[nH]c2ccccc12)C(=O)N[C@@H](C)C(=O)N[C@@H]1CCSSCCCNC(=O)[C@H](C)NC(=O)[C@H](Cc2c[nH]c3ccccc23)NC(=O)[C@H](CCCNC(=N)N)NC(=O)[C@@H](Cc2ccccc2)NC(=O)[C@H](Cc2c[nH]cn2)NC1=O [Chem. 5, c[c[Cys-His-D-Phe-Arg-Trp-Ala-Cys]- His-D-Phe-Arg-Trp-Ala]] (Ac-H[dF]RWA[d(hCys)]H[dF]RWA; linker 6-C via X1)
201		CC1(C)NC(=O)[C@@H]2CSSC[C@H](NC(=O)[C@H](Cc3c[nH]c4ccccc34)NC(=O)[C@H](CCCNC(=N)N)NC(=O)[C@@H](Cc3ccccc3)NC(=O)[C@H](Cc3c[nH]cn3)NC1=O)C(=O)NC(C)(C)C(=O)N[C@@H](Cc1c[nH]cn1)C(=O)N[C@H](Cc1ccccc1)C(=O)N[C@@H](CCCNC(=N)N)C(=O)N[C@@H](Cc1c[nH]c3ccccc13)C(=O)N2 [Chem. 9, c[c[Cys-Aib-His-D-Phe-Arg-Trp-Cys]- Aib-His-D-Phe-Arg-Trp]] (cyclo([Aib]H[dF]RWC[Aib]H[dF]RWC); disulfide 6-12)
288		C[C@@H]1NC(=O)[C@@H]2CSSC[C@H](NC(=O)[C@H](Cc3c[nH]c4ccccc34)NC(=O)[C@H](CCN)NC(=O)[C@@H](Cc3ccccc3)NC(=O)[C@H](Cc3c[nH]cn3)NC1=O)C(=O)N[C@@H](C)C(=O)N[C@@H](Cc1c[nH]cn1)C(=O)N[C@H](Cc1ccccc1)C(=O)N[C@@H](CCN)C(=O)N[C@@H](Cc1c[nH]c3ccccc13)C(=O)N2 [Chem. 17, c[c[Cys-Ala-His-D-Phe-Dab-Trp-Cys]- Ala-His-D-Phe-Dab-Trp]]
364	0.49	C[C@@H]1NC(=O)[C@@H]2CSSC[C@H](NC(=O)[C@H](Cc3c[nH]c4ccccc34)NC(=O)[C@H](Cc3c[nH]cn3)NC(=O)[C@@H](Cc3ccccc3)NC(=O)[C@H](Cc3c[nH]cn3)NC1=O)C(=O)N[C@@H](C)C(=O)N[C@@H](Cc1c[nH]cn1)C(=O)N[C@H](Cc1ccccc1)C(=O)N[C@@H](Cc1c[nH]cn1)C(=O)N[C@@H](Cc1c[nH]c3ccccc13)C(=O)N2 [Chem. 24, c[c[Cys-Ala-His-D-Phe-His-Trp-Cys]- Ala-His-D-Phe-His-Trp]] (cyclo(AH[dF]HWCAH[dF]HWC); disulfide 6-12)

Structure (SMILES)	MC1R/MC4R cAMP EC50 ratio	EC50 [nM]
N=C(N)NCCC[C@@H]1NC(=O)[C@@H](Cc2ccccc2)NC(=O)[C@H](Cc2c[nH]cn2)NC(=O)[C@@H]2CSSC[C@H](NC(=O)[C@H](CCC(=O)O)NC(=O)[C@H](Cc3c[nH]c4ccccc34)NC1=O)C(=O)N[C@@H](Cc1c[nH]cn1)C(=O)N[C@H](Cc1ccccc1)C(=O)N[C@@H](CCCNC(=N)N)C(=O)N[C@@H](Cc1c[nH]c3ccccc13)C(=O)N[C@@H](CCC(=O)O)C(=O)N2 [Chem. 1, c[c[Cys-His-D-Phe-Arg-Trp-Glu-Cys]- His-D-Phe-Arg-Trp-Glu]] (cyclo(CH[dF]RWECH[dF]RWE); disulfide 1-7)	13	
